Laboratory results from US20260000656A1, “ANTIFUNGAL AGENTS WITH ENHANCED ACTIVITY IN ACIDIC PH” (Scynexis, Inc., priority 2017, published 2026).
In brackets after ≈: the same amount, converted by molar mass. Where two headings read alike, the source gives them in different places. Numbered stars: 1 amine (or outer) side, 2 acyl side, 3 side chain; on linkers, the order of the positions; unused ones are H or OH. Bridge positions count the residues as written; N and C are the ends. Square brackets hold non-standard residues; d marks the D form. Peptide text beside a SMILES is read from it. * marks the point of attachment. hTyr(3S-OH,4S-OH,3'-OSO3H) = N[C@H](C(=O)O)[C@H](O)[C@@H](O)c1ccc(O)c(OS(=O)(=O)O)c1; Orn(4R-OH,5R-OH) = O=C([C@H](C[C@@H](O)[C@@H](O)N[*:3])N[*:1])[*:2]; Pro(3S-OH,4S-Me) = C[C@H]1CN[C@H](C(=O)O)[C@H]1O; X1 = CCCCCOc1ccc(-c2cc(-c3ccc(C(=O)*)cc3)no2)cc1; Gln(3R-OH) = NC(=O)C[C@@H](O)[C@H](N)C(=O)O; Hyp = O=C(O)[C@@H]1C[C@@H](O)CN1

Test system: C. glabrata isolates
Assay: Broth microdilution susceptibility (CLSI M27-A3) at different medium pH
Assay type: cell-based, Candida glabrata
Details: for MIC range: 50% inhibition, 10 vaginal isolates; for MIC50 / MIC90 / MIC: Nakaseomyces glabratus, 24 h
Protocol: Ten strains each of C. glabrata and C. albicans vaginal isolates were tested. The strains were obtained from recent clinical trial patients with vulvovaginal candidiasis (VVC) prior to treatment. Candida strains were obtained from the Mycology Reference Library (MRL) at Case Western Reserve University School of Medicine, Ohio, United States.
Susceptibility testing was performed using a broth microdilution method, according to CLSI M27-A3 guidelines (CLSI. 2008. Reference Method for Broth Dilution Antifungal Susceptibility Testing of Yeasts; Approved Standard—Third Edition. Clinical and Laboratory Standards Institute, CLSI document M27-A3). Antifungals and concentrations tested were SCY-078 and micafungin (both at concentrations within the range of 0.015 to 8 μg/ml) and fluconazole (at concentrations within the range of 0.125 to 64 μg/ml). A 0.1-ml C. albicans and C. glabrata inoculum of 0.5-2.5×10^3 blastospores/ml in RPMI 1640 medium was added to each microdilution well. ATCC strains of Candida parapsilosis and Candida krusei QC isolates were also included concurrently to ensure quality control. Antifungal susceptibility testing was carried out for each isolate in RPMI 1640 at pH 7 (to mimic RPMI medium used in testing the susceptibility of yeast by the CLSI M-27A3 document), pH 5.7, and pH 4.5 (to mimic the pH of the vaginal cavity) by adjusting the pH of the media using NaOH or HCl. […] Agents Chemother., 43: 1383-1386 (1999).
[…] SCY-078 powder was manufactured by Avista, Laboratories, NC. Micafungin and fluconazole were sourced from LGM Pharma.

With `CCCCCOc1ccc(-c2cc(-c3ccc(C(=O)N[C@H]4C[C@@H](O)[C@@H](O)NC(=O)[C@@H]5[C@@H](O)[C@@H](C)CN5C(=O)[C@H]([C@H](O)CC(N)=O)NC(=O)[C@H]([C@H](O)[C@@H](O)c5ccc(O)c(OS(=O)(=O)O)c5)NC(=O)[C@@H]5C[C@@H](O)CN5C(=O)[C@H]([C@@H](C)O)NC4=O)cc3)no2)cc1` [Micafungin, reference compound] (X1-[Orn(4R-OH,5R-OH)]T[Hyp][hTyr(3S-OH,4S-OH,3'-OSO3H)][Gln(3R-OH)][Pro(3S-OH,4S-Me)]; lactam 1-C) the MIC range (pH 4.5, 24 h) was 0.25 µg/mL (≈ 0.197 µM), the MIC range (pH 5.72, 24 h) was 0.25 µg/mL (≈ 0.197 µM) and the MIC range (pH 7.0, 24 h) was 0.25 to 0.5 µg/mL. For the same molecule, the MIC50 (pH 4.5) was 0.25 µg/mL (≈ 0.197 µM), the MIC90 (pH 4.5) was 0.25 µg/mL (≈ 0.197 µM) and the MIC (pH 4.5, read-out: MIC (50% inhibition), C. glabrata MRL 32075, pH 4.5, 24 hours) was 0.25 µg/mL (≈ 0.197 µM). The MIC (pH 4.5, read-out: MIC (50% inhibition), C. glabrata MRL 32232, pH 4.5, 24 hours) was 0.25 µg/mL (≈ 0.197 µM), the MIC (pH 4.5, read-out: MIC (50% inhibition), C. glabrata MRL 32626, pH 4.5, 24 hours) was 0.25 µg/mL (≈ 0.197 µM) and the MIC (pH 4.5, read-out: MIC (50% inhibition), C. glabrata MRL 32993, pH 4.5, 24 hours) was 0.25 µg/mL (≈ 0.197 µM). It also gave an MIC (pH 4.5, read-out: MIC (50% inhibition), C. glabrata MRL 33204, pH 4.5, 24 hours) of 0.25 µg/mL (≈ 0.197 µM), an MIC (pH 4.5, read-out: MIC (50% inhibition), C. glabrata MRL 33960, pH 4.5, 24 hours) of 0.25 µg/mL (≈ 0.197 µM) and an MIC (pH 4.5, read-out: MIC (50% inhibition), C. glabrata MRL 33961, pH 4.5, 24 hours) of 0.25 µg/mL (≈ 0.197 µM). For the same molecule, the MIC (pH 4.5, read-out: MIC (50% inhibition), C. glabrata MRL 34339, pH 4.5, 24 hours) was 0.25 µg/mL (≈ 0.197 µM), the MIC (pH 4.5, read-out: MIC (50% inhibition), C. glabrata MRL 34407, pH 4.5, 24 hours) was 0.25 µg/mL (≈ 0.197 µM) and the MIC (pH 4.5, read-out: MIC (50% inhibition), C. glabrata MRL 34576, pH 4.5, 24 hours) was 0.25 µg/mL (≈ 0.197 µM). For the same molecule, the MIC50 (pH 5.72) was 0.25 µg/mL (≈ 0.197 µM), the MIC90 (pH 5.72) was 0.25 µg/mL (≈ 0.197 µM) and the MIC (pH 5.72, read-out: MIC (50% inhibition), C. glabrata MRL 32075, pH 5.72, 24 hours) was 0.25 µg/mL (≈ 0.197 µM). It also gave an MIC (pH 5.72, read-out: MIC (50% inhibition), C. glabrata MRL 32232, pH 5.72, 24 hours) of 0.25 µg/mL (≈ 0.197 µM), an MIC (pH 5.72, read-out: MIC (50% inhibition), C. glabrata MRL 32626, pH 5.72, 24 hours) of 0.25 µg/mL (≈ 0.197 µM) and an MIC (pH 5.72, read-out: MIC (50% inhibition), C. glabrata MRL 32993, pH 5.72, 24 hours) of 0.25 µg/mL (≈ 0.197 µM). For the same molecule, the MIC (pH 5.72, read-out: MIC (50% inhibition), C. glabrata MRL 33204, pH 5.72, 24 hours) was 0.25 µg/mL (≈ 0.197 µM), the MIC (pH 5.72, read-out: MIC (50% inhibition), C. glabrata MRL 33960, pH 5.72, 24 hours) was 0.25 µg/mL (≈ 0.197 µM) and the MIC (pH 5.72, read-out: MIC (50% inhibition), C. glabrata MRL 33961, pH 5.72, 24 hours) was 0.25 µg/mL (≈ 0.197 µM). The MIC (pH 5.72, read-out: MIC (50% inhibition), C. glabrata MRL 34339, pH 5.72, 24 hours) was 0.25 µg/mL (≈ 0.197 µM), the MIC (pH 5.72, read-out: MIC (50% inhibition), C. glabrata MRL 34407, pH 5.72, 24 hours) was 0.25 µg/mL (≈ 0.197 µM) and the MIC (pH 5.72, read-out: MIC (50% inhibition), C. glabrata MRL 34576, pH 5.72, 24 hours) was 0.25 µg/mL (≈ 0.197 µM). The MIC50 (pH 7) was 0.25 µg/mL (≈ 0.197 µM), the MIC90 (pH 7) was 0.5 µg/mL (≈ 0.394 µM) and the MIC (pH 7, read-out: MIC (50% inhibition), C. glabrata MRL 32075, pH 7.0, 24 hours) was 0.25 µg/mL (≈ 0.197 µM). The MIC (pH 7, read-out: MIC (50% inhibition), C. glabrata MRL 32232, pH 7.0, 24 hours) was 0.5 µg/mL (≈ 0.394 µM), the MIC (pH 7, read-out: MIC (50% inhibition), C. glabrata MRL 32626, pH 7.0, 24 hours) was 0.5 µg/mL (≈ 0.394 µM) and the MIC (pH 7, read-out: MIC (50% inhibition), C. glabrata MRL 32993, pH 7.0, 24 hours) was 0.25 µg/mL (≈ 0.197 µM). For the same molecule, the MIC (pH 7, read-out: MIC (50% inhibition), C. glabrata MRL 33204, pH 7.0, 24 hours) was 0.25 µg/mL (≈ 0.197 µM), the MIC (pH 7, read-out: MIC (50% inhibition), C. glabrata MRL 33960, pH 7.0, 24 hours) was 0.5 µg/mL (≈ 0.394 µM) and the MIC (pH 7, read-out: MIC (50% inhibition), C. glabrata MRL 33961, pH 7.0, 24 hours) was 0.25 µg/mL (≈ 0.197 µM). It also gave an MIC (pH 7, read-out: MIC (50% inhibition), C. glabrata MRL 34339, pH 7.0, 24 hours) of 0.25 µg/mL (≈ 0.197 µM), an MIC (pH 7, read-out: MIC (50% inhibition), C. glabrata MRL 34407, pH 7.0, 24 hours) of 0.25 µg/mL (≈ 0.197 µM) and an MIC (pH 7, read-out: MIC (50% inhibition), C. glabrata MRL 34576, pH 7.0, 24 hours) of 0.25 µg/mL (≈ 0.197 µM).
